The subject of assay [1] is head lice. Put plainly: In vitro test of agent dried onto lice (driable pediculostatic agent test). The arrangement: species or system Pediculus humanus capitis. The settings on record: water by itself.
Excerpt: Contact a louse with a pediculostatic agent for a period of time sufficient to immobilize the louse (i.e., for at least 1× the Immersion Reflex Index of the agent);
Dry the agent onto the louse, either by air-drying or by application of heat, and observe whether the louse remains immobilized.
The period of time necessary for a particular dried agent to kill the louse can be conveniently determined by rinsing the dried agent off lice as a function of time and observing whether the rinsed lice regain mobility upon drying off.
Six crawling lice were obtained from patients with head lice and each placed in a drop of […] ® Cleanser as described in EXAMPLE 1. After 2 min., the cleanser was dried onto the lice by air drying (4 lice) or gentle warm air from a hair dryer (2 lice).
For assay [2], the system named is head lice. Put plainly: In vitro immersion reflex test: louse placed in a drop of wet agent on a microscope slide. The arrangement: species or system Pediculus humanus capitis. The settings on record: water by itself. From the text:
Driable pediculostatic agents useful in the methods and kits of the present invention are characterized by their ability to induce an immersion reflex in lice in their wet form and to keep the lice in the immersion reflex once dried. The following in vitro test can be conveniently used to determine whether any individual agent is a pediculostatic agent, and can further be used for routine screening of agents—such as those from natural products libraries and combinatorial chemical libraries—to identify those that can be used in the methods, compositions, and kits of the present invention:
1. Contact a louse with an agent suspected of being a pediculostatic agent; and
2. Observe whether the louse becomes immobile.
Observations can readily be performed using a standard inexpensive light microscope with 10× or 40× magnification. The length of time necessary to render the louse completely immobile, in minutes, is the Immersion Reflex Index of the agent tested.
Ten crawling lice were obtained from patients with head lice and each one placed on a separate microscope slide for observation under a microscope at 10× or 40× power. […] Within 6 seconds of application, they stopped all spontaneous movement. Usually within 30 seconds, and always within 60 seconds, they would not respond to contact by a probe and ceased previously visible gastrointestinal motility. […]

The structures appear in SMILES notation.

Take `O` [water]: in the assay on head lice [1], the “lice upon drying of the agent” value was “recover and regain mobility”. Moreover, the “induction of the immersion reflex in lice” value with head lice [2] was “triggers the immersion reflex”.
